Measurements as given in article PMC10408569, “Recruitment of hexahydroquinoline as anticancer scaffold targeting inhibition of wild and mutants EGFR (EGFR^WT, EGFR^T790M, and EGFR^L858R)” (Journal of Enzyme Inhibition and Medicinal Chemistry, 2023).

Tests used:
[1] = tested on: CCRF-CEM; test: NCI-60 anticancer screening (SRB); format: cell-based; details: Homo sapiens, leukemia, one dose 10 μM, read-out: Growth Inhibition Percentage (GI %)
[2] = tested on: HL-60(TB); test: NCI-60 anticancer screening (SRB); format: cell-based; details: Homo sapiens, leukemia, one dose 10 μM, read-out: Growth Inhibition Percentage (GI %)
[3] = tested on: MOLT-4; test: NCI-60 anticancer screening (SRB); format: cell-based; details: Homo sapiens; MOLT-4, leukemia; one dose 10 μM; read-out: Growth Inhibition Percentage (GI %)
[4] = tested on: A549/ATCC; test: NCI-60 anticancer screening (SRB); format: cell-based; details: Homo sapiens; A549/ATCC, NSC lung cancer; one dose 10 μM; read-out: Growth Inhibition Percentage (GI %)
[5] = tested on: NCI-H322M; test: NCI-60 anticancer screening (SRB); format: cell-based; details: Homo sapiens, NSC lung cancer, one dose 10 μM, read-out: Growth Inhibition Percentage (GI %)
[6] = tested on: COLO 205; test: NCI-60 anticancer screening (SRB); format: cell-based; details: Homo sapiens; COLO 205, colon cancer; one dose 10 μM; read-out: Growth Inhibition Percentage (GI %)
[7] = tested on: HCC-2998; test: NCI-60 anticancer screening (SRB); format: cell-based; details: Homo sapiens; HCC-2998, colon cancer; one dose 10 μM; read-out: Growth Inhibition Percentage (GI %)
[8] = tested on: HCT-15; test: NCI-60 anticancer screening (SRB); format: cell-based; details: Homo sapiens; HCT-15, colon cancer; one dose 10 μM; read-out: Growth Inhibition Percentage (GI %)
[9] = tested on: KM 12; test: NCI-60 anticancer screening (SRB); format: cell-based; details: Homo sapiens, KM12; KM 12, colon cancer; one dose 10 μM; read-out: Growth Inhibition Percentage (GI %)
[10] = tested on: SW-620; test: NCI-60 anticancer screening (SRB); format: cell-based; details: Homo sapiens; SW-620, colon cancer; one dose 10 μM; read-out: Growth Inhibition Percentage (GI %)
[11] = tested on: MDA-MB-435; test: NCI-60 anticancer screening (SRB); format: cell-based; details: Homo sapiens; MDA-MB-435, melanoma; one dose 10 μM; read-out: Growth Inhibition Percentage (GI %)
[12] = tested on: SK-MEL-28; test: NCI-60 anticancer screening (SRB); format: cell-based; details: Homo sapiens; SK-MEL-28, melanoma; one dose 10 μM; read-out: Growth Inhibition Percentage (GI %)
[13] = tested on: UACC-62; test: NCI-60 anticancer screening (SRB); format: cell-based; details: Homo sapiens; UACC-62, melanoma; one dose 10 μM; read-out: Growth Inhibition Percentage (GI %)
[14] = tested on: OVCAR-3; test: NCI-60 anticancer screening (SRB); format: cell-based; details: Homo sapiens; OVCAR-3, ovarian cancer; one dose 10 μM; read-out: Growth Inhibition Percentage (GI %)
[15] = tested on: OVCAR-4; test: NCI-60 anticancer screening (SRB); format: cell-based; details: Homo sapiens; OVCAR-4, ovarian cancer; one dose 10 μM; read-out: Growth Inhibition Percentage (GI %)
[16] = tested on: OVCAR-8; test: NCI-60 anticancer screening (SRB); format: cell-based; details: Homo sapiens; OVCAR-8, ovarian cancer; one dose 10 μM; read-out: Growth Inhibition Percentage (GI %)
[17] = tested on: NCI/ADR-RES; test: NCI-60 anticancer screening (SRB); format: cell-based; details: Homo sapiens, ovarian cancer, one dose 10 μM, read-out: Growth Inhibition Percentage (GI %)
[18] = tested on: SK-OV-3; test: NCI-60 anticancer screening (SRB); format: cell-based; details: Homo sapiens; SK-OV-3, ovarian cancer; one dose 10 μM; read-out: Growth Inhibition Percentage (GI %)
[19] = tested on: RXF 393; test: NCI-60 anticancer screening (SRB); format: cell-based; details: Homo sapiens; RXF 393, renal cancer; one dose 10 μM; read-out: Growth Inhibition Percentage (GI %)
[20] = tested on: TK-10; test: NCI-60 anticancer screening (SRB); format: cell-based; details: Homo sapiens; TK-10, renal cancer; one dose 10 μM; read-out: Growth Inhibition Percentage (GI %)
[21] = tested on: UO-31; test: NCI-60 anticancer screening (SRB); format: cell-based; details: Homo sapiens; UO-31, renal cancer; one dose 10 μM; read-out: Growth Inhibition Percentage (GI %)
[22] = tested on: PC-3; test: NCI-60 anticancer screening (SRB); format: cell-based; details: Homo sapiens; PC-3, prostate cancer; one dose 10 μM; read-out: Growth Inhibition Percentage (GI %)
[23] = tested on: MCF7; test: NCI-60 anticancer screening (SRB); format: cell-based; details: Homo sapiens; MCF7, breast cancer; one dose 10 μM; read-out: Growth Inhibition Percentage (GI %)
[24] = tested on: MDA-MB-231; test: NCI-60 anticancer screening (SRB); format: cell-based; details: Homo sapiens; MDA-MB-231, breast cancer; one dose 10 μM; read-out: Growth Inhibition Percentage (GI %)
[25] = tested on: HS 578T; test: NCI-60 anticancer screening (SRB); format: cell-based; details: Homo sapiens; HS 578T, breast cancer; one dose 10 μM; read-out: Growth Inhibition Percentage (GI %)
[26] = tested on: BT-549; test: NCI-60 anticancer screening (SRB); format: cell-based; details: Homo sapiens; BT-549, breast cancer; one dose 10 μM; read-out: Growth Inhibition Percentage (GI %)
[27] = tested on: MDA-MB-468; test: NCI-60 anticancer screening (SRB); format: cell-based; details: Homo sapiens; MDA-MB-468, breast cancer; one dose 10 μM; read-out: Growth Inhibition Percentage (GI %)
[28] = tested on: NCI 60 cancer cell lines; test: NCI-60 anticancer screening (SRB), whole panel; format: cell-based, human; details: mean across the NCI-60 panel; one dose 10 μM
[29] = target: EGFR^T790M (Homo sapiens, UniProt P00533, T790M); test: biochemical
[30] = target: EGFR^L858R (Homo sapiens, UniProt P00533, L858R); test: biochemical
[31] = target: EGFR^WT (Homo sapiens, UniProt P00533); test: EGFR kinase inhibitory assay (HTRF)
EGFR^WT, sequence (P00533 25-1210): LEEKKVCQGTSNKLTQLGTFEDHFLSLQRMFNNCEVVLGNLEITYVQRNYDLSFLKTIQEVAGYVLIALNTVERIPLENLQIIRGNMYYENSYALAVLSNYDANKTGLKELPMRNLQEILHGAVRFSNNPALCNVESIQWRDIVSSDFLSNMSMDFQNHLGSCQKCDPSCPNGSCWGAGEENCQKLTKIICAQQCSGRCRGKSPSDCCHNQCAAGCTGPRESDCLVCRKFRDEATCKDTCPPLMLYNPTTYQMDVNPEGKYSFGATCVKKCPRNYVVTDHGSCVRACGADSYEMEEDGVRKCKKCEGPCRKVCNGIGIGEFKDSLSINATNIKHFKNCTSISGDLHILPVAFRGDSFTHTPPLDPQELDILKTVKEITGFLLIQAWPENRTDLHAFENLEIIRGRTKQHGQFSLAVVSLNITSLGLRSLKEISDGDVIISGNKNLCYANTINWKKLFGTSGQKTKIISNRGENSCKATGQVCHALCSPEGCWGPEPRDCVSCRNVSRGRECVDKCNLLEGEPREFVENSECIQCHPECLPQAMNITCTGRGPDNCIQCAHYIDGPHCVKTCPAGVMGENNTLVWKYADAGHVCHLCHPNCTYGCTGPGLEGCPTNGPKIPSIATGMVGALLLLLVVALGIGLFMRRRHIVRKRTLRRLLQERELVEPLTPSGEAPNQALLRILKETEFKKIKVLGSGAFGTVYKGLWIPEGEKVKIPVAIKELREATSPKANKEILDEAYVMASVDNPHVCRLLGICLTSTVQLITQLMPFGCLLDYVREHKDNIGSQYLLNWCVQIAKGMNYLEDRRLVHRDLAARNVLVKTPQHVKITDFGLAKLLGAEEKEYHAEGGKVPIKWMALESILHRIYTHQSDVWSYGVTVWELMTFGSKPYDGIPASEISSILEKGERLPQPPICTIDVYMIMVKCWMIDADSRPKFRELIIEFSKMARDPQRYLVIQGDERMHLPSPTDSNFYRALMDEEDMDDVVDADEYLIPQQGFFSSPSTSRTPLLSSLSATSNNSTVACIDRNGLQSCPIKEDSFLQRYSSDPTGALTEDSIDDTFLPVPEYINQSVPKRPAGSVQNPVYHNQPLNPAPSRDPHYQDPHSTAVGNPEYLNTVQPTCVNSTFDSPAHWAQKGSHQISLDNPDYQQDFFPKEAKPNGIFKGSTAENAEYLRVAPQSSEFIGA

EGFR^L858R, sequence (P00533 25-1210 L858R): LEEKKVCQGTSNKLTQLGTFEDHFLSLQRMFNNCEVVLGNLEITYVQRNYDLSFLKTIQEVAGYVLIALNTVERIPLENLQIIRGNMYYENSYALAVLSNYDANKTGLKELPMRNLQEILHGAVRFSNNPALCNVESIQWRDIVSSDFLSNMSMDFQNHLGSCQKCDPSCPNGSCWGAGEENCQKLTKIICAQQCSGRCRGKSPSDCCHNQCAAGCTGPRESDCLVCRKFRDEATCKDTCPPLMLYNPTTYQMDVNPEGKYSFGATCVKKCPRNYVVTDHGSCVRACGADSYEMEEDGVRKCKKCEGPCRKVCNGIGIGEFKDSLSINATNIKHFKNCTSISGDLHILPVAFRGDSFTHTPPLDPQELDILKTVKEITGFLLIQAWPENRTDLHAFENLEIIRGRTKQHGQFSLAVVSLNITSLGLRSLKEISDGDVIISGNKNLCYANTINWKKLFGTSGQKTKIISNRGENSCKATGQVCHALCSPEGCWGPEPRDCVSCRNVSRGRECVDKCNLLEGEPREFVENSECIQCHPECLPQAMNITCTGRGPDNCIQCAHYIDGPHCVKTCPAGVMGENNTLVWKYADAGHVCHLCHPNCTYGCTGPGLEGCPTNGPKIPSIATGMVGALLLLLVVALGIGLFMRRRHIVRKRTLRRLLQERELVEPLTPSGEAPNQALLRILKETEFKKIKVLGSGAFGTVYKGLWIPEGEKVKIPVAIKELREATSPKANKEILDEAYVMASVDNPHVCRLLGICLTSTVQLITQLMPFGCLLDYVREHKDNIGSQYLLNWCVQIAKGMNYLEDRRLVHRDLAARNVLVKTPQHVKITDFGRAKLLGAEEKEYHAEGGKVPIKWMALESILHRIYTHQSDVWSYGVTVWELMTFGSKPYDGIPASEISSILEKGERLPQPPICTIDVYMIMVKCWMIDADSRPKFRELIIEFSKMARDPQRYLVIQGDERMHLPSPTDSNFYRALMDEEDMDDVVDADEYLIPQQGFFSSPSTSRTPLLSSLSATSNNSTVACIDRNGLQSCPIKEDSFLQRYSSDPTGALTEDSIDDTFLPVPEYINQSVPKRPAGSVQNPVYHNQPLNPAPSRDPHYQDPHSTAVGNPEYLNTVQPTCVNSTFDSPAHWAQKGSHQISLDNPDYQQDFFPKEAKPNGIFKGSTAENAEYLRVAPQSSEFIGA
EGFR^T790M, sequence (P00533 25-1210 T790M): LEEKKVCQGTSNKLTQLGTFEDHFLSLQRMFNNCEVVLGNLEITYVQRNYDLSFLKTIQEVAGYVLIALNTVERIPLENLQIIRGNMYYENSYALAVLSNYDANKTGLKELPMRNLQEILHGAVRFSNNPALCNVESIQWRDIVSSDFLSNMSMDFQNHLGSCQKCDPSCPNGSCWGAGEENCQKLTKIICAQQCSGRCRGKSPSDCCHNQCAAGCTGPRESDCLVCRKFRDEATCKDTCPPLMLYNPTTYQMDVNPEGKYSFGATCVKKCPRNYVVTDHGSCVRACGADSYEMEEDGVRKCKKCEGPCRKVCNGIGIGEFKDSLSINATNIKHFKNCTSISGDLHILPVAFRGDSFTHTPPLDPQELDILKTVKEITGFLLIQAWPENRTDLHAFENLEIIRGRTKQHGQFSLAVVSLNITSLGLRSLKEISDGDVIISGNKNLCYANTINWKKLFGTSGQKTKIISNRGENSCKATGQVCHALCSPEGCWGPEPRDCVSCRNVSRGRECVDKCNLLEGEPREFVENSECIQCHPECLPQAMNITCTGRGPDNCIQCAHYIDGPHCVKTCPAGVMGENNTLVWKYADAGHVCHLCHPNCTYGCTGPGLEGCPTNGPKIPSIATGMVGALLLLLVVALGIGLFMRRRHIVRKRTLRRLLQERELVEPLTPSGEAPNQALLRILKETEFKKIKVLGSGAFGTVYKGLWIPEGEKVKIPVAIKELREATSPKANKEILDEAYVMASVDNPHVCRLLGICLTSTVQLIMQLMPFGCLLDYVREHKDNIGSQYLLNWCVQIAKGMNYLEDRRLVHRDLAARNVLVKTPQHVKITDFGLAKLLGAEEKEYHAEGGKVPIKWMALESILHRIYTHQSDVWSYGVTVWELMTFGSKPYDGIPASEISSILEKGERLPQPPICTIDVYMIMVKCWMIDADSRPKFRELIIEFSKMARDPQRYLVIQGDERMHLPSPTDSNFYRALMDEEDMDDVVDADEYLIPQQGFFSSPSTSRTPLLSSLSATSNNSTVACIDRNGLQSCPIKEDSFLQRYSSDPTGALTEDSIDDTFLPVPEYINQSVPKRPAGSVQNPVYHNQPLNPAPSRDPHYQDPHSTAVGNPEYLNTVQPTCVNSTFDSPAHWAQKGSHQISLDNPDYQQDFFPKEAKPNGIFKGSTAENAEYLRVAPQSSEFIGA

CCOC(=O)C1=C(N)N(c2ccc(Cl)cc2)C2=C(C(=O)CC(C)(C)C2)C1c1cccc(Cl)c1Cl (racemic) [10b, (±)-Ethyl 2-amino-1–(4-chorophenyl)-4–(2,3-dichlorophenyl)-7,7-dimethyl-5-oxo-1-phenyl-1,4,5,6,7,8-hexahydroquinoline-3-carboxylate] was tested, and the inhibition at 10 µM [1] was 64%, the inhibition at 10 µM [2] was 77% and the inhibition at 10 µM [3] was 70%. The inhibition at 10 µM [4] was 34%, the inhibition at 10 µM [5] was < 10% and the inhibition at 10 µM [6] was 41%. The inhibition at 10 µM [7] was 18%, the inhibition at 10 µM [8] was 62% and the inhibition at 10 µM [9] was 49%. The inhibition at 10 µM [10] was < 10%, the inhibition at 10 µM [11] was 25% and the inhibition at 10 µM [12] was 16%. The inhibition at 10 µM [13] was 34%, the inhibition at 10 µM [14] was 44% and the inhibition at 10 µM [15] was 28%. It also gave an inhibition at 10 µM [16] of 25%, an inhibition at 10 µM [17] of 32% and an inhibition at 10 µM [18] of 13%. For the same compound, the inhibition at 10 µM [19] was 27%, the inhibition at 10 µM [20] was < 10% and the inhibition at 10 µM [21] was 49%. For the same compound, the inhibition at 10 µM [22] was 76%, the inhibition at 10 µM [23] was 52% and the inhibition at 10 µM [24] was 33%. For the same compound, the inhibition at 10 µM [25] was < 10%, the inhibition at 10 µM [26] was 31% and the inhibition at 10 µM [27] was 68%. For the same compound, the GI % mean [28] was 36%, the IC50 [29] was 954 ± 8 nM and the IC50 [30] was 878 ± 6 nM. It also gave an IC50 [31] of 205 ± 90 nM.

For CCOC(=O)C1=C(N)N(c2ccc(C)cc2)C2=C(C(=O)CC(C)(C)C2)C1c1cccnc1 (racemic) [12e, (±)-Ethyl 2-amino-7,7-dimethyl-1–(4-methylphenyl)-5-oxo-1-phenyl-4-(pyrdin-3-yl)-1,4,5,6,7,8-hexahydroquinoline-3-carboxylate], the inhibition at 10 µM [1] was < 10%, the inhibition at 10 µM [2] was < 10% and the inhibition at 10 µM [3] was < 10%. For the same compound, the inhibition at 10 µM [4] was < 10%, the inhibition at 10 µM [5] was < 10% and the inhibition at 10 µM [6] was < 10%. For the same compound, the inhibition at 10 µM [7] was < 10%, the inhibition at 10 µM [8] was < 10% and the inhibition at 10 µM [9] was < 10%. For the same compound, the inhibition at 10 µM [10] was < 10%, the inhibition at 10 µM [11] was < 10% and the inhibition at 10 µM [12] was < 10%. The inhibition at 10 µM [13] was 14%, the inhibition at 10 µM [14] was < 10% and the inhibition at 10 µM [15] was < 10%. For the same compound, the inhibition at 10 µM [16] was < 10%, the inhibition at 10 µM [17] was < 10% and the inhibition at 10 µM [18] was < 10%. The inhibition at 10 µM [19] was < 10%, the inhibition at 10 µM [20] was < 10% and the inhibition at 10 µM [21] was 23%. For the same compound, the inhibition at 10 µM [22] was 12%, the inhibition at 10 µM [23] was < 10% and the inhibition at 10 µM [24] was < 10%. The inhibition at 10 µM [25] was < 10%, the inhibition at 10 µM [26] was < 10% and the inhibition at 10 µM [27] was < 10%. The GI % mean [28] was “- ((-) = GI % mean less than 10)”.

In the case of CCOC(=O)C1=C(N)N(c2ccccc2)C2=C(C(=O)CC(C)(C)C2)C1c1ccc(N2CCOCC2)cc1 (racemic) [8l, (±)-Ethyl 2-amino-7,7-dimethyl-4-[4-(morpholin-4-yl)phenyl]-5-oxo-1-phenyl-1,4,5,6,7,8-hexahydroquinoline-3-carboxylate], the inhibition at 10 µM [1] is reported as < 10%, the inhibition at 10 µM [2] is reported as < 10% and the inhibition at 10 µM [3] is reported as < 10%. For the same compound, the inhibition at 10 µM [4] was < 10%, the inhibition at 10 µM [5] was < 10% and the inhibition at 10 µM [6] was < 10%. The inhibition at 10 µM [7] was < 10%, the inhibition at 10 µM [8] was < 10% and the inhibition at 10 µM [9] was < 10%. For the same compound, the inhibition at 10 µM [10] was < 10%, the inhibition at 10 µM [11] was < 10% and the inhibition at 10 µM [12] was < 10%. The inhibition at 10 µM [13] was 17%, the inhibition at 10 µM [14] was < 10% and the inhibition at 10 µM [15] was < 10%. For the same compound, the inhibition at 10 µM [16] was < 10%, the inhibition at 10 µM [17] was < 10% and the inhibition at 10 µM [18] was < 10%. For the same compound, the inhibition at 10 µM [19] was < 10%, the inhibition at 10 µM [20] was < 10% and the inhibition at 10 µM [21] was < 10%. For the same compound, the inhibition at 10 µM [22] was < 10%, the inhibition at 10 µM [23] was < 10% and the inhibition at 10 µM [24] was < 10%. For the same compound, the inhibition at 10 µM [25] was < 10%, the inhibition at 10 µM [26] was < 10% and the inhibition at 10 µM [27] was < 10%. The GI % mean [28] was “- ((-) = GI % mean less than 10)”.

For CCOC(=O)C1=C(N)N(c2ccc(C)cc2)C2=C(C(=O)CC(C)(C)C2)C1c1ccc([N+](=O)[O-])cc1 (racemic) [8j, (±)-Ethyl 2-amino-7,7-dimethyl-1–(4-methylphenyl)-4–(4-nitrophenyl)-5-oxo-1,4,5,6,7,8-hexahydroquinoline-3-carboxylate], the inhibition at 10 µM [1] was < 10%, the inhibition at 10 µM [2] was < 10% and the inhibition at 10 µM [3] was < 10%. The inhibition at 10 µM [4] was < 10%, the inhibition at 10 µM [5] was < 10% and the inhibition at 10 µM [6] was < 10%. For the same compound, the inhibition at 10 µM [7] was < 10%, the inhibition at 10 µM [8] was < 10% and the inhibition at 10 µM [9] was < 10%. The inhibition at 10 µM [10] was < 10%, the inhibition at 10 µM [11] was < 10% and the inhibition at 10 µM [12] was < 10%. For the same compound, the inhibition at 10 µM [13] was 13%, the inhibition at 10 µM [14] was < 10% and the inhibition at 10 µM [15] was < 10%. The inhibition at 10 µM [16] was < 10%, the inhibition at 10 µM [17] was < 10% and the inhibition at 10 µM [18] was < 10%. For the same compound, the inhibition at 10 µM [19] was < 10%, the inhibition at 10 µM [20] was < 10% and the inhibition at 10 µM [21] was < 10%. For the same compound, the inhibition at 10 µM [22] was < 10%, the inhibition at 10 µM [23] was < 10% and the inhibition at 10 µM [24] was < 10%. The inhibition at 10 µM [25] was < 10%, the inhibition at 10 µM [26] was < 10% and the inhibition at 10 µM [27] was < 10%. For the same compound, the GI % mean [28] was “- ((-) = GI % mean less than 10)”.
